Laboratory results: patent US6121253A, “Prostaglandin conjugates for treating or preventing bone disease” (Merck Frosst Canada & Co., priority 1999, dated 2000)
Read-outs that look alike come from different tables or passages of the source.

Key:
[1] = cited from earlier work
[2] = long term s.c.; adrenal glands, liver, kidneys, and lungs; cited from earlier work
[3] = cited from earlier work; remark: listed apart in the source
[4] = 1, 3 and 6 mg/Kg/day PGE2, rapidly growing rats; cited from earlier work
[5] = oral dosing; cited from earlier work
[6] = Characterization of 3H liberated on hydrolysis of conjugate in rat plasma; format: in vitro ADME; details: conjugate 20, 24 hr, fresh rat plasma, of the initial counts
Experimental: A stock solution of 0.4 μCi conjugate 20 or [^3 H]-PGE2 (0.4 μCi) is incubated in either fresh rat plasma, boiled plasma or PBS (ml) at 37 C. After 4 h or 24 h, 100 μl aliquots are removed, diluted with acetonitrile (100 μl), vortexed and centrifuged. 100 μl of supernatant is separated by HPLC (C-18, 0.5% HOAc in water, 66%: acetonitrile 33%, 1 ml/min) with effluent monitored by an on-line scintillation detector and UV detector. No radioactivity is eluted under these conditions when 0.2 μCi, conjugate 20 (62 μg) is applied. (It is necessary to mix 0.4 mg of unlabelled 20 with 0.1 μCi labelled 20 to recover 0.05 μCi from the HPLC.) Radioactive peaks are identified by coelution with authentic [^3 H]-PGE2 and cold PGA2. An authentic sample of PGB2 is prepared by incubating PGE2 (2.4 mg) with 1 ml rat plasma at 37° C. for 24 hr. The sample, purified by HPLC, will have appropriate ^1 H-NMR, UV and MS. To identify radioactive peaks eluting at the solvent front with incubation of conjugate 20 for 24 hr in fresh rat plasma, the fraction is collected and distilled. The collected distillate has 60% of the initial counts.

[7] = Dissociation/release of label from human bone powder in fetal bovine serum at 37 C; format: in vitro ADME
Experimental: Dissociation of [^3 H]-PGE2 /[^14 C]-alendronate from human bone powder in fetal bovine serum at 37 C is measured by incubating 10 mg of human one powder with 1 μl [^3 H]-PGE2 /[^14 C]-ABP in 1 ml FBS for 5 mins. The mixture is centrifuged (20 sec), 100 μl aliquot is taken and counted in Atomlight in an LKB liquid scintillation counter. The rest of the 900 μl solution is withdrawn, the bone powder is washed once with 1 ml phosphate buffered saline, 1 ml fresh fetal bovine serum is added and incubated with the bone powder for 15, 24, 39, 48, 59, 79 and 103 hours in a shaking bath at 37° C. 100 μl aliquots are withdrawn at these times and counted in 10 ml Atomlight in an LKB liquid scintillation counter. The release of radioactivity from the human bone powder into the medium is calculated as follows: dpms from 100 μl of the [^3 H]-PGE2 /[^14 C]-ABP at 5 mins are subtracted from dpms at 0 time. The resulting dpms reflect radioactivity taken up by bone powder. The dpms obtained by counting 100 μl aliquots at each time point are then divided by the dpms taken up by bone. 13% of the ^3 H-moiety is released into the medium at 15 hrs and by 103 hours 32.9% of the radioactivity is released into the medium.

[8] = Uptake/binding of dual-labelled conjugate to human bone powder in fetal bovine serum
Experimental: Dual-labelled conjugate 14 ([^3 H]-PGE2 /[^14 C]-alendronate) (21.64 μCi of ^14 C and 19.05 μCi of ^3 H) is placed in 1 ml 100% fetal bovine serum to yield a final concentration of 3.5 μM. […] of this solution is incubated with 10 mg bone powder for 1, 2, 3 and 5 mins with vigorous shaking. The mixture is centrifuged (20 sec), 125 μl aliquot is taken from each sample and counted in 10 ml Atomlight in an LKB liquid scintillation counter, 125 μl of the radioactive sample is also counted at 0 time. The uptake of radioactivity into the bone powder is calculated by subtracting the dpms in the medium counted at the times indicated above from dpms at 0 time and this number is divided by the dpms at 0 time.

[9] = In vivo uptake and release in rat tibiae and femora; parameters: species or system rat (Sprague-Dawley female); details: single i.v. dose
Experimental: The animals used in this experiment were sacrificed at 24 hours, 14 and 28 days after the compounds claimed in the instant invention were administered. The radioactivity of the ^14 C and ^3 H was measured after incineration of the long bones to determine the percentage of compound retained in the bone. […] High LP levels are normally associated with the breakdown of bone collagen.
Both compounds are administered i.v. via the tail vein to Sprague-Dawley female rats as a radiolabelled compound, equivalent to about 0.3 μCi/animal, [^3 H]-alendronate is administered to nine rats and [^3 H]-PGE2 /[^14 C]-ABP (dual labelled conjugate 14), is administered to seven rats. After 1, 14 or 28 days, animals are sacrificed by CO2 inhalation and the tibiae and femora are dissected, weighed and then stored at -20° C. The amount of radioactivity incorporated into the bone is determined by incineration in a Packard combuster after first air drying the bone for three days at ambient temperature. The percent of the compound retained in the skeleton at each time point is calculated on the basis of the radioactivity, converted to nmoles/gm bone on the assumption that the skeleton represents 8% of the body weight. The skeletal retention is expressed as percent administered dose.

[10] = s.c. over 60, 120, and 180 days

CCCCC[C@H](O)/C=C/[C@H]1[C@H](O)CC(=O)[C@@H]1C/C=C\CCCC(=O)O [PGE2]
serum phosphate levels ([1]; 1 mg of PGE2): significant decreases | side effects ([1]; s.c., doses of 3 mg/Kg/day or higher, rats): diarrhea and flushing of the extremities along with weight loss | soft tissue weight [2]: soft tissue weight increases in adrenal glands, liver, kidneys, and lungs | periosteal and corticoendosteal bone mass ([3]; daily s.c. administration): increases periosteal and corticoendosteal bone mass | bone activity [3, 10]: elevated bone activity | tibial diaphyseal bone mass [3, 10]: increased tibial diaphyseal bone mass | hard tissue mass in the secondary spongiosa of the proximal tibial metaphysis [4]: increase in hard tissue mass | number of trabeculae [4]: increase in the number of trabeculae | side effects [5]: loose stools, diarrhea, vomiting, infected sclerae, and increased serum alkaline phosphatase levels

CCCCC[C@@H](/C=C/[C@H]1[C@H](O)CC(=O)[C@@H]1C/C=C\CCCC(=O)O)OC(=O)CSCc1cc(CSCC(=O)O[C@H](/C=C/[C@H]2[C@H](O)CC(=O)[C@@H]2C/C=C\CCCC(=O)O)CCCCC)cc(CC(P(=O)(O)O)P(=O)(O)O)c1 [Conjugate 20, Bis-(PGE2)-bisphosphonate conjugate]
counts in collected distillate of radioactive peak eluting at solvent front [6]: 60%

CCCCC[C@@H](/C=C/[C@H]1[C@H](O)CC(=O)[C@@H]1C/C=C\CCCC(=O)O)OC(=O)CSCCCC(P(=O)(O)O)P(=O)(O)O [Conjugate 14, PGE2 bisphosphonate conjugate]
3H-moiety released into the medium ([7]; 15 hrs, fetal bovine serum, 37° C.): 13% | radioactivity released into the medium (3H-moiety) ([7]; 103 hours, fetal bovine serum, 37° C.): 32.9% | rate of release (disassociation) of PG (3H) moiety from human bone powder ([7]; fetal bovine serum, 37° C., listed as 14 C/^3 H dual labeled compound): approximately 5 %/day | rate of release (disassociation) of PG (3H) moiety from human bone powder ([7]; fetal bovine serum, 37° C., listed as [^3 H]-PGE2 /[^14 C]-alendronate): About 5 %/day | release of the prostaglandin from the bisphosphonate at bone ([7]; radiolabel and radioimmunoassay experiments): confirm release of the prostaglandin from the bisphosphonate at the bone cell site | dpms of 14C-moiety in the medium ([7]; up to 103 hours, fetal bovine serum, 37° C.): not significantly changed | time of uptake to human bone powder ([8]; in vitro): within one minute | uptake of 3H-moiety by human bone powder ([8]; within 1 min): ~53% | uptake of 14C-moiety by human bone powder ([8]; within 1 min): about 76% | uptake of 14C-moiety by human bone powder ([8]; within 1 min, listed as 14 C/^3 H dual labeled compound): About 77% | uptake into / delivery to bone in vivo [9]: uptake of the labeled compound shown below into rat tibiae and femora after a single dose was administered intravaneously was demonstrated
